Data on 5 molecules can be found in paper PMC8945229, “Development and Biological Characterization of a Novel Selective TrkA Agonist with Neuroprotective Properties against Amyloid Toxicity” (Biomedicines, 2022).

Broadly, the IC50 is the concentration that inhibits the measured activity by half.

In data set [1] the target is T1, TrkA (Rattus norvegicus, UniProt P35739).
T1 construct: we used PC12 cells, a cell line that express TrkA and p75^NTR; host or cells: PC12
Set-up: method as in PMID 27618740. The conditions noted are these: cited from earlier work.

Data set [2] deals with Erk1/2. Set-up: method as in PMID 27618740. As to conditions: cited from earlier work.
On the set-up of data set [3]: method as in PMID 27498123, PMID 33638308. The conditions noted are these: t = 60 min; cited from earlier work.
Data set [4] relates to γ-secretase. As to the kind of experiment: γ-secretase activity / APP processing in U2OS APP-C99-tGFP cells. Type of data set: cell-based. The conditions noted are these: 3 μM, positive control. The method, then:
PC12 and HEK293T cells were obtained from LGC Promochem GmbH (Teddington, UK) and cultured under the conditions specified by the manufacturer. NIH3T3 cells were stably transfected with human TrkB plasmid. PC12 cells were grown in DMEM medium (11965084, Gibco, Grand Island, NY, USA) containing 10% Horse Serum (16050122, Gibco, Grand Island, NY, USA), 5% Fetal Bovine Serum (10270106, Gibco, Grand Island, NY, USA), 100 units/mL Penicillin and 0.1 mg/mL Streptomycin (15140122, Gibco, Grand Island, NY, USA) at 5% CO2 and 37 °C. Cells were used between passages 5–20. HEK293T and NIH3T3 cells were grown in the same medium as PC12 cells supplemented with 10% Fetal Bovine Serum and lacking Horse Serum. For transient transfection of HEK293T cells, lipofectamine was used and cells were transfected with human p75^NTR and Traf6 plasmids. To determine the intracellular activity of endogenous secretases, we tagged (tGFP) a truncated mutant (Tm) of APP containing the original amino acids sequence from M516 to N773. This Tm conserves the secretases cleavage sites, clathrin binding site, tau protein binding site, collagen binding site and some glycosylation sites critical for protein localization and intracellular trafficking. The cDNA of the TmAPP gene was amplified by PCR and subcloned into pturbo-GFP vector. The construction was transfected into U2OS cells (ATCC Cat Number HTB-96) using Lipofectamine LTX (Thermo Fisher Scientific, Waltham, MA, USA). After 48 h, individual cells were plated in MTP96 plates using F.SIGHT (CYTENA GmbH, Freiburg, Germany), and cultured in complete medium containing 250 μg/mL G418 for selection. The selection medium was changed every two to three days. The cells were allowed to grow for 3 to 4 weeks, after which clones were isolated for further analysis. Resistant clones were checked by RT-PCR and epifluorescence microscopy.
The Alzheimer’s Disease (AD) phenotype is partly attributed to the toxic effects caused by oligmeric Aβ, which results in reduced neuronal trophic support, caused by deregulation of neurotrophic signaling. It is therefore reasonable that a small molecule that can selectively activate TrkA signaling and promote neuronal survival could alleviate the detrimental effects caused by toxic Aβ oligomers, especially during the early phases of the disease or modulate APP misprocessing and therefore reduce the production of the toxic Aβ. The U2OS stably expressing APP-C99-tGFP cell line was used in order to monitor γ-secretase activity, the process responsible for Aβ production from APP. The assay achieves this by measuring the levels of fluorescent APP-C99 construct produced by β-secretase activity. When γ-secretase is active, the construct is cleaved, leading to Aβ production. […] Therefore, higher fluorescence levels correspond to decreased γ-secretase activity and Aβ aggregate formation by extension. […] In addition, in order to investigate whether ENT-A013 can protect cells against Aβ-induced toxicity we isolated neurons from the hippocampus of E17.5 mouse embryos, a brain area that is heavily affected in AD. Neurons were left in culture for 16–18 DIV and then were treated with oligomeric Aβ and ENT-A013 for 48 h. Subsequently, cells were fixed and cell death was assessed using TUNEL assay.
(A,B) Primary hippocampal neurons were treated for 48 h with oligomeric Aβ in the presence of ENT-A013 and TUNEL assay was used to quantify cell death. Representative images from 3 independent experiments. Data are shown as ±SEM. One-way ANOVA, Tukey’s Test correction: ** p < 0.01; *** p < 0.001. (C) Aggregate formation on untreated cells, treated with DAPT inhibitor of γ-secretase or with compound ENT-A013. […] Aggregate formation was quantified with a BD Pathway 855 High-Content Bioimager and Attonvision software.

In data set [5] the target is T1, TrkA. As to the kind of experiment: TrkA phosphorylation in PC12 cells (IP with TrkA antibody, Western blot against phosphorylated Tyrosine). The format is cell-based. As to conditions: for time TrkA phosphorylation is sustained after treatment: PC12 cells, 10, 30 or 60′ treatment. As for the experimental part:
For immunoprecipitation experiments PC12 or HEK293T, cells were used when at 70–80% confluent. […] Cells were then lysed in Pierce™ IP Lysis Buffer (87788, Thermo Fischer Scientific, Waltham, MA, USA) containing proteases (539138, Calbiochem, Darmstadt, Germany) and phosphatase inhibitors (524629, Calbiochem, Darmstadt, Germany). Lysates were then immunoprecipitated overnight at 4 °C with TrkA antibody (1:100, 06-574, Sigma-Aldrich, St. Louis, MO, USA) (Table S1) or p75^NTR antibody (1:100, ab6172, Abcam plc., Cambridge, UK) followed by 4 h incubation with protein G-plus agarose beads (sc-2002, Santa Cruz Biotechnology, Inc., Dallas, TX, USA). Beads were then collected, washed 3X with lysis buffer, resuspended in SDS loading buffer and subjected to Western blot against phosphorylated Tyrosine (1:1000, BAM1676, R&D Systems, Inc., Minneapolis, MN, USA) or Traf6 antibody (1:2000, ab33915, Abcam, plc., Cambridge, UK). Whole cell lysates were subjected to Western blot against TrkA (1:1000, 06-574, Sigma-Aldrich, St. Louis, MO, USA), phosphorylated TrkB (1:1000, ABN1381, Sigma-Aldrich, St. Louis, MO, USA), phosphorylated TrkC (1:1000, STJ90960, St John’s Laboratory, Ltd., London, UK), TrkB (1:1000, 07-225-I, Sigma-Aldrich, St. Louis, MO, USA), TrkC (1:1000, C44H5, Cell Signaling Technology, Danvers, MA, USA), p75 (1:1000, 839701, Biolegend, Inc., San Diego, CA, USA), Traf6 (1:2000, ab33915, Abcam, plc., Cambridge, UK) phosphorylated Akt (1:1000, 9721S, Cell Signaling Technology, Danvers, MA, USA), phosphorylated Erk1/2 (1:1000, 9101S, Cell Signaling Technology, Danvers, MA, USA), total Akt (1:1000, 4691S Cell Signaling Technology, Danvers, MA, USA) and total Erk1/2 (1:1000, 4695S, Cell Signaling Technology, Danvers, MA, USA).

In data set [6] the test system is Erk1/2. As to the kind of experiment: Erk1/2 phosphorylation in PC12 cells (Western blot). The conditions noted are these: for Erk1/2 phosphorylation: 500 nM, 30′. The format is cell-based. As for the experimental part: For immunoprecipitation experiments PC12 or HEK293T, cells were used when at 70–80% confluent. Cells were starved of serum for 4 h and subsequently treated with 100 ng/mL NGF or 500 nM of compound ENT-A013 for 30′. Cells were then lysed in Pierce™ IP Lysis Buffer (87788, Thermo Fischer Scientific, Waltham, MA, USA) containing proteases (539138, Calbiochem, Darmstadt, Germany) and phosphatase inhibitors (524629, Calbiochem, Darmstadt, Germany). Lysates were then immunoprecipitated overnight at 4 °C with TrkA antibody (1:100, 06-574, Sigma-Aldrich, St. Louis, MO, USA) (Table S1) or p75^NTR antibody (1:100, ab6172, Abcam plc., Cambridge, UK) followed by 4 h incubation with protein G-plus agarose beads (sc-2002, Santa Cruz Biotechnology, Inc., Dallas, TX, USA). Beads were then collected, washed 3X with lysis buffer, resuspended in SDS loading buffer and subjected to Western blot against phosphorylated Tyrosine (1:1000, BAM1676, R&D Systems, Inc., Minneapolis, MN, USA) or Traf6 antibody (1:2000, ab33915, Abcam, plc., Cambridge, UK). Whole cell lysates were subjected to Western blot against TrkA (1:1000, 06-574, Sigma-Aldrich, St. Louis, MO, USA), phosphorylated TrkB (1:1000, ABN1381, Sigma-Aldrich, St. Louis, MO, USA), phosphorylated TrkC (1:1000, STJ90960, St John’s Laboratory, Ltd., London, UK), TrkB (1:1000, 07-225-I, Sigma-Aldrich, St. Louis, MO, USA), TrkC (1:1000, C44H5, Cell Signaling Technology, Danvers, MA, USA), p75 (1:1000, 839701, Biolegend, Inc., San Diego, CA, USA), Traf6 (1:2000, ab33915, Abcam, plc., Cambridge, UK) phosphorylated Akt (1:1000, 9721S, Cell Signaling Technology, Danvers, MA, USA), phosphorylated Erk1/2 (1:1000, 9101S, Cell Signaling Technology, Danvers, MA, USA), total Akt (1:1000, 4691S Cell Signaling Technology, Danvers, MA, USA) and total Erk1/2 (1:1000, 4695S, Cell Signaling Technology, Danvers, MA, USA).
A general note: Immunoblotting shows a protein as a band on a membrane.

Data set [7] concerns PC12 cells. As to the kind of experiment: CellTox assay, serum deprivation-induced cell death. The conditions noted are these: serum deprivation; for CellTox positive cells normalized to total number of cells: 24 h, 500 nM; for IC50: CellTox, read-out: IC50 (anti-apoptotic dose–response). The format is cell-based. The method, then: CellTox assay (G8742, Promega Corporation, Maddison, WI, USA) was used to assess survival of PC12 cells under serum deprivation conditions. PC12 cells were plated in 96-well plates, starved of serum for 4 h and subsequently treated with NGF (100 ng/mL) or ENT-A013 (500 nM) in the presence or absence of TrkA inhibitor GW441756 (20 μM, G-190, Alomone labs, Jerusalem, Israel) for 24 h. CellTox assay reagents and Hoescht (1:10,000, H3570, Invitrogen, Waltham, MA, USA) were added to each well for 30′ and cells were then imaged with a Zeiss AXIO Vert A1 fluorescent microscope (Zeiss, Jena, Germany). CellTox positive cells were normalized to total number of cells for each image.

T1 sequence (P35739 33-799): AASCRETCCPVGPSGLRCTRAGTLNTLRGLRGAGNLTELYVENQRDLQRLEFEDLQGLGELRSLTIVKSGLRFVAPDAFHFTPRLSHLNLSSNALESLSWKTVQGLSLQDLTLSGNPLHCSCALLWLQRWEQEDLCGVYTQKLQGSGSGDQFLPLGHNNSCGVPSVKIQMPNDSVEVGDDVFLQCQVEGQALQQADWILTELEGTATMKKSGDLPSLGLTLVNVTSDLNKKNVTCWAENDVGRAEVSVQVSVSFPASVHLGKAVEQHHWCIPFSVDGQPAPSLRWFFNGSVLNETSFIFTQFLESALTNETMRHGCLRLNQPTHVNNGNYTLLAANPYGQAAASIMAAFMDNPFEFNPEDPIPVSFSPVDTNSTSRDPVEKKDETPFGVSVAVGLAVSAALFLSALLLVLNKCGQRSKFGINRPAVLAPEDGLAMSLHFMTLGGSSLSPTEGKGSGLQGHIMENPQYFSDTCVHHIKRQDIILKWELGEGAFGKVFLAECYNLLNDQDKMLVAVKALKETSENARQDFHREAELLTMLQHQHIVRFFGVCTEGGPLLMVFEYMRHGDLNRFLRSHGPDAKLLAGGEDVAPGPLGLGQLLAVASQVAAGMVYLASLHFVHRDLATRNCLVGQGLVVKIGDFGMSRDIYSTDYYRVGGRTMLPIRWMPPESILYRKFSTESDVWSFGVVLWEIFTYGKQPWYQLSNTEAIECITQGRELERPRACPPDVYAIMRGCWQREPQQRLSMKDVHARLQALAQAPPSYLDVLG

For `C[C@]12CC[C@H](O)CC1=CC[C@@H]1[C@@H]2CC[C@@]2(C)[C@H]1CC[C@@]21O[C@@H]1CO` [BNN27], the “time TrkA is phosphorylated after treatment” value in data set [1] is “up to 6 hr”. Further, the “time beyond which Erk1/2 is not activated” value in data set [2] is listed as not above 15 min. Besides, the “residual of time zero” value in data set [3] is recorded as 70%.

For `C[C@H](NC(=O)Cc1cc(F)cc(F)c1)C(=O)N[C@H](C(=O)OC(C)(C)C)c1ccccc1` [DAPT, reference compound], in data set [4], the “fluorescence levels (APP-C99-tGFP, in words)” value is given as “Fluorescence levels increased”.

For `CC12CCC(O)CC1=CCC1C2CCC2(C)C1CCC21CC1C=CBr` (stereo not drawn) [ENT-A013E], the “time TrkA phosphorylation is sustained after treatment” value in data set [5] is “up to 1 hr”. Also, in data set [6], the “time Erk1/2 phosphorylation is sustained after treatment” value is given as “up to 1 hr” and the Erk1/2 phosphorylation is on record as 7.87 ± 2.23 % of control FC. Moreover, in data set [7], the “CellTox positive cells normalized to total number of cells” value is recorded as 0.07 ± 0.02 and the IC50 was 281 nM.

With `CC12CCC(O)CC1=CCC1C2CCC2(C)C1CCC21CC1C=CBr` (stereo not drawn) [ENT-A013Z], in data set [5], the “time TrkA phosphorylation is sustained after treatment” value is recorded as “up to 1 hr”. In addition, in data set [6], the “time Erk1/2 phosphorylation is sustained after treatment” value is “up to 1 hr” and the Erk1/2 phosphorylation is 4.13 ± 1.46 % of control FC. In addition, in data set [7], the “CellTox positive cells normalized to total number of cells” value was 0.08 ± 0.02 and the IC50 turned out to be 273 nM.

Regarding “NGF: Nerve Growth Factor, neurotrophin acting through TrkA and p75NTR receptors”, the TrkA phosphorylation in data set [5] (PC12 cells, compound 500 nM or NGF 100 ng/mL, 30′) is given as 2.30 ± 0.62 % of control FC.
